Test results from patent US11679112B2, “Cancer treatments using combinations of CDK and ERK inhibitors” (BIOMED VALLEY DISCOVERIES, INC., priority 2013, dated 2023).
pIC50: −log10 of the molar value.

Assays:
A549 cells [1] = test: Single agent proliferation assay, CellTiter-Glo, A549; format: cell-based; details: Homo sapiens; for pIC50: 72 h, read-out: Relative IC50
Description: (§1) Cells were seeded in 96-well plates at the densities indicated in Table 4 in RPMI containing 10% FBS and allowed to adhere overnight prior to addition of compound or vehicle control. Compounds were prepared from DMSO stocks to give the desired final concentrations. The final DMSO concentration was constant at 0.1%. Test compounds were incubated with the cells for 72 h at 37° C., 5% CO2 in a humidified atmosphere. CellTiter-Glo® reagent (Promega, Madison, Wis.) was added according to manufacturer's instructions and luminescence detected using the BMG FLUOstar plate reader (BMG Labtech, Ortenberg, Germany). A duplicate set of assay plates was incubated with 10 μg/ml Hoechst 33342 stain (Invitrogen, Grant Island, N.Y.) in complete growth medium for 1 h at 37° C., 5% CO2 in a humidified atmosphere. The medium was then removed and replaced with PBS and fluorescence detected using a BMG FLUOstar Omega plate reader (BMG labtech, Ortenberg, Germany). The average media only background value was deducted and the data analysed using a 4-parameter logistic equation in GraphPad Prism (GraphPad Software, La Jolla, Calif.).
(§2) The effects of BVD-523, the CDK4/6 inhibitors, another ERK inhibitor (SCH772984), and a reference MEK inhibitor (Trametinib), as single agents on cell viability was assessed after 72 h using two methods (FIGS. 2A-2L). The first method was by quantitating cellular ATP levels using CellTiter-Glo® (Promega, Madison, Wis.). The second method was by quantitating total amount of DNA in an assay well after staining the DNA with Hoechst stain.

A549 cells [2] = test: Single agent proliferation assay, Hoechst stain, A549; format: cell-based; details: Homo sapiens, 72 h, read-out: Relative IC50
Description: as §1, §2

H2122 cells [3] = test: Single agent proliferation assay, CellTiter-Glo, H2122; format: cell-based; details: Homo sapiens; for pIC50: NCI-H2122, 72 h, read-out: Relative IC50
Description: as §1, §2

H2122 cells [4] = test: Single agent proliferation assay, Hoechst stain, H2122; format: cell-based; details: Homo sapiens, NCI-H2122, 72 h, read-out: Relative IC50
Description: as §1, §2

H1437 cells [5] = test: Single agent proliferation assay, CellTiter-Glo, H1437; format: cell-based; details: Homo sapiens; for pIC50: NCI-H1437, 72 h, read-out: Relative IC50; for inhibition at 3 µM: NCI-H1437, @3 μM
Description: as §1, §2

H1437 cells [6] = test: Single agent proliferation assay, Hoechst stain, H1437; format: cell-based; details: Homo sapiens; for pIC50: NCI-H1437, 72 h, read-out: Relative IC50
Description: as §1, §2

H226 cells [7] = test: Single agent proliferation assay, CellTiter-Glo, H226; format: cell-based; details: Homo sapiens; for inhibition at 10 µM: NCI-H226, @10 μM; for inhibition at 3 µM: NCI-H226, @3 μM
Description: as §1, §2

H226 cells [8] = test: Single agent proliferation assay, Hoechst stain, H226; format: cell-based; details: Homo sapiens; for pIC50: NCI-H226, 72 h, read-out: Relative IC50
Description: as §1, §2

[9] = system: MAPK signaling components in A375 cells; test: Western blot of MAPK, cell cycle and apoptosis signaling in A375 cells; format: cell-based, human
Description: (§3) For Western blot studies, HCT116 cells (5×10^6) were seeded into 10 cm dishes in McCoy's 5A plus 10% FBS. A375 cells (2.5×10^6) were seeded into 10 cm dishes in DMEM plus 10% FBS. Cells were allowed to adhere overnight prior to addition of the indicated amount of test compound (BVD-523) or vehicle control. Cells were treated for either 4 or 24 hours before isolation of whole-cell protein lysates, as specified below. Cells were harvested by trypsinisation, pelleted and snap frozen. Lysates were prepared with RIPA (Radio-Immunoprecipitation Assay) buffer, clarified by centrifugation and quantitated by bicinchoninic acid assay (BCA) assay. 20-50 μg of protein was resolved by SDS-PAGE electrophoresis, blotted onto PVDF membrane and probed using the antibodies detailed in Table 2 (for the 4-hour treatment) and Table 3 (for the 24-hour treatment) below.

[10] = system: MAPK signaling in HCT-116 cells; test: Western blot of MAPK signaling in HCT116 cells; format: cell-based, human; details: HCT116, 4 hours, micromolar concentrations
Description: as §3

ERK = details: Morris et al., 2013; cited from earlier work
[11] = read-out: Maximal percentage inhibition

Structure (SMILES)	pIC50 (A549 cells [1])	pIC50 (A549 cells [2])	pIC50 (H2122 cells [3])	pIC50 (H2122 cells [4])	pIC50 (H1437 cells [5])	pIC50 (H1437 cells [6])	inhibition at 10 µM (H226 cells [7]; [11]) [%]	pIC50 (H226 cells [8])	inhibition at 3 µM (H1437 cells [5]; [11]) [%]	inhibition at 3 µM (H226 cells [7]; [11]) [%]	also measured
CC(C)Nc1cc(-c2c[nH]c(C(=O)N[C@H](CO)c3cccc(Cl)c3)c2)c(Cl)cn1 [BVD-523]	6.14	6.23	6.35	6.35	5.92	5.85	34	–	–	–	inhibition at 10 µM (H226 cells [8]; NCI-H226, @10 μM, read-out: Maximal percentage inhibition): 58%; cyclin-D1 level ([9]; 24 hours): greatly reduced; phosphorylation of ERK-dependent residues (T359/S363) in RSK 1 and 2 proteins ([9]; A375, 4 hours, micromolar concentrations): reduced; Bim-EL level ([9]; A375, prolonged treatment): increased; increased apoptosis (PARP cleavage) ([9]; A375, prolonged treatment): not observed; MAPK feedback phosphatase DUSP6 level ([9]; BRAF mutant cell line, 24 hours): greatly reduced; concentrations required to induce changes in substrate phosphorylation and effector targets of ERK ([9]; RAF and RAS mutant cancer cells, acute and prolonged treatment): low micromolar range; effect on autophosphorylation of ERK ([9]; see FIG. 1): allows for the autophosphorylation of ERK while still inhibiting ERK; phosphorylation of ERK-dependent residues (T359/S363) in RSK 1 and 2 proteins [10]: reduced
CN(C)C(=O)c1cc2cnc(Nc3ccc(N4CCNCC4)cn3)nc2n1C1CCCC1 [LEE-011]	–	6.15	–	6.35	–	5.55	32	6.43	–	–	inhibition at 10 µM (A549 cells [1]; @10 μM, read-out: Maximal percentage inhibition): 49%; inhibition at 10 µM (H2122 cells [3]; NCI-H2122, @10 μM, read-out: Maximal percentage inhibition): 44%; inhibition at 10 µM (H1437 cells [5]; NCI-H1437, @10 μM, read-out: Maximal percentage inhibition): 30%
CC(=O)O[C@H]1C(=O)[C@@]2(C)[C@H]([C@H](OC(=O)c3ccccc3)[C@]3(O)C[C@H](OC(=O)[C@H](O)[C@@H](NC(=O)c4ccccc4)c4ccccc4)C(C)=C1C3(C)C)[C@]1(OC(C)=O)CO[C@@H]1C[C@@H]2O [Paclitaxcel, Paclitaxel]	8.52	8.70	8.52	8.70	8.15	8.52	–	8.52	–	–	pIC50 (H226 cells [7]; NCI-H226, 72 h, read-out: Relative IC50): 8.52
CC(=O)c1c(C)c2cnc(Nc3ccc(N4CCNCC4)cn3)nc2n(C2CCCC2)c1=O [Palbociclib]	–	6.89	–	6.82	–	6.66	–	7.25	29	20	inhibition at 3 µM (A549 cells [1]; @3 μM, read-out: Maximal percentage inhibition): 41%; inhibition at 3 µM (H2122 cells [3]; NCI-H2122, @3 μM, read-out: Maximal percentage inhibition): 48%
O=C(Nc1ccc2[nH]nc(-c3ccncc3)c2c1)[C@@H]1CCN(CC(=O)N2CCN(c3ccc(-c4ncccn4)cc3)CC2)C1 [SCH772984]	5.96	6.13	6.20	6.28	–	–	–	–	57	35	inhibition at 3 µM (H1437 cells [6]; NCI-H1437, @3 μM, read-out: Maximal percentage inhibition): 63%; inhibition at 3 µM (H226 cells [8]; NCI-H226, @3 μM, read-out: Maximal percentage inhibition): 49%; effect on autophosphorylation of ERK (ERK): inhibits autophosphorylation of ERK
CC(=O)Nc1cccc(-n2c(=O)n(C3CC3)c(=O)c3c(Nc4ccc(I)cc4F)n(C)c(=O)c(C)c32)c1 [Trametinib]	8.30	8.30	8.52	8.52	8.70	8.52	–	8.70	–	–	inhibition at 1 µM (H226 cells [7]; NCI-H226, @1 μM, read-out: Maximal percentage inhibition): 57%
